In paper PMC5062114, “Dual-targeting anti-angiogenic cyclic peptides as potential drug leads for cancer therapy” (Scientific Reports, 2016):
Like-named read-outs stand apart in the source and are kept apart here. Bridge positions count the residues as written; N and C are the ends. Square brackets hold non-standard residues; d marks the D form. Ends that are not written are not given here. Peptide text beside a SMILES is read from it.

How the values were obtained:
Assay in all cases: cells
HT-29 = system: HT-29
Procedure: (§1) HUVECs (human umbilical vein endothelial cells) were cultured in EGM™-2 BulletKit™ supplemented with SingleQuots™ (supplements: growth factors, cytokines, antibiotics; Lonza) and 10% FBS (catalog no. FFBS-500; Scientifix). Both HT-29 and MCF-7 cells were cultured in 10% FBS/DMEM (Dulbecco’s Modified Eagle Medium) with 1% penicillin–streptomycin (5000 U/mL; Life Technologies), whereas PC3 cells (prostate cancer cells) were cultured in 10% FBS/RPMI (Roswell Park Memorial Institute) 1640 with 1% penicillin–streptomycin (5000 U/mL; Life Technologies). All cells were maintained at 37 °C in 5% CO2.
(§2) Cell cytotoxicity and proliferation assays were performed using similar methods to those described by Chan et al.[45]. All cells were maintained using the media conditions described above, and passages two to ten were used for all cell lines. For all cell lines, 5.0 × 10^3 cells/well (100 μL) and 1.5 × 10^3 cells/well (100 μL) were used for cell cytotoxicity and cell proliferation assays, respectively. All peptides (10 μL, at final concentrations ranging from 0.05–100 μM) and drugs, which included cilengitide, octreotide and sunitinib (at final concentrations ranging from 0.00001–100 μM), were used in both assays. Triton X-100 (0.1% (v/v); 10 μL) was used as a positive control. Cells were treated with fresh media the day after plating, before the addition of peptides, followed by a subsequent 2-h and 48-h incubation for cell cytotoxicity and cell proliferation, respectively. After different incubation periods, 3-(4, 5-dimethylthiazolyl-2)-2,5-diphenyltetrazolium bromide (MTT) (10 μL; 5 mg/mL in PBS) was added, and cells were incubated for a further 4 h. The supernatant was then removed and 100 μL DMSO added to solubilize formazan salts. Experiments were performed in triplicate. Cell numbers were recorded at 600 nm. All data represent average mean ± SD.

HUVEC = system: HUVEC
Procedure: as §1, §2

MCF-7 = system: MCF-7
Procedure: as §1, §2

PC3 = system: PC3
Procedure: as §1, §2

[1] = read-out: IC50 ± S.D., 48 hours, HT-29, cell proliferation inhibition, MTT, 48-h incubation, 1.5 × 10^3 cells/well, triplicate, mean ± SD
[2] = read-out: IC50 ± S.D., 48 hours, HUVEC, cell proliferation inhibition, MTT, 48-h incubation, 1.5 × 10^3 cells/well, triplicate, mean ± SD
[3] = read-out: IC50 ± S.D., 48 hours, MCF-7, cell proliferation inhibition, MTT, 48-h incubation, 1.5 × 10^3 cells/well, triplicate, mean ± SD
[4] = read-out: IC50 ± S.D., 48 hours, PC3, cell proliferation inhibition, MTT, 48-h incubation, 1.5 × 10^3 cells/well, triplicate, mean ± SD

Row | Compound | IC50 (HT-29; [1]) [µM] | IC50 (HUVEC; [2]) [µM] | IC50 (MCF-7; [3]) [µM] | IC50 (PC3; [4]) [µM] | IC50 (HT-29; 4 h) [µM] | IC50 (HUVEC; 4 h) [µM] | IC50 (MCF-7; 4 h) [µM] | IC50 (PC3; 4 h) [µM]
1 | CC[C@H](C)[C@@H]1NC(=O)[C@@H]2CSSC[C@@H]3NC(=O)[C@H](C(C)C)NC(=O)CNC(=O)CNC(=O)[C@H](CC(=O)O)NC(=O)[C@H](CO)NC(=O)CNC(=O)[C@H](CO)NC(=O)CNC(=O)[C@@H]4CSSC[C@H](NC(=O)[C@H](CC(=O)O)NC(=O)[C@H](CO)NC(=O)[C@H](CC(=O)O)NC(=O)[C@H](CCCNC(=N)N)NC(=O)[C@H](CCCNC(=N)N)NC(=O)[C@H](CSSC[C@H](NC1=O)C(=O)N[C@@H](CCCNC(=N)N)C(=O)N[C@@H](Cc1ccc(O)cc1)C(=O)N[C@H](Cc1c[nH]c5ccccc15)C(=O)N[C@@H](CCCCN)C(=O)N[C@@H](C(C)C)C(=O)N4)NC(=O)CNC(=O)[C@H](CCCNC(=N)N)NC(=O)[C@H](CCCNC(=N)N)NC(=O)[C@H](CCCNC(=N)N)NC(=O)[C@H](CCCCN)NC(=O)[C@H](CCCNC(=N)N)NC(=O)[C@H](CCCNC(=N)N)NC(=O)CNC3=O)C(=O)N1CCC[C@H]1C(=O)NCC(=O)N[C@@H](C)C(=O)N2 [MCoAA-01] (cyclo(ACICRY[dW]KVCGSGSDGGVCGRRKRRRGCRRDSDCPG); disulfide 2-19, 4-28, 10-34) | 40.12 ± 0.13 | 10.83 ± 0.09 | 45.01 ± 0.16 | > 100 | – | – | – | –
2 | C[C@@H](O)[C@H](NC(=O)[C@H](CCCCN)NC(=O)[C@@H](Cc1c[nH]c2ccccc12)NC(=O)[C@H](Cc1ccccc1)NC(=O)[C@@H](N)CCCNC(=N)N)C(=O)N[C@@H](Cc1c[nH]c2ccccc12)C(=O)O [SST-02, reference compound] (H-RF[dW]KTW-OH) | – | – | – | – | > 100 | > 100 | > 100 | > 100
3 | YHLNQPF [PEDF, reference compound] | > 100 | 19.4 ± 0.08 | > 100 | > 100 | – | – | – | –
4 | CC[C@H](C)[C@@H]1NC(=O)[C@@H]2CSSC[C@@H]3NC(=O)[C@H](C(C)C)NC(=O)CNC(=O)CNC(=O)[C@H](CC(=O)O)NC(=O)[C@H](CO)NC(=O)CNC(=O)[C@H](CO)NC(=O)CNC(=O)[C@@H]4CSSC[C@H](NC(=O)[C@H](CC(=O)O)NC(=O)[C@H](CO)NC(=O)[C@H](CC(=O)O)NC(=O)[C@H](CCCNC(=N)N)NC(=O)[C@H](CCCNC(=N)N)NC(=O)[C@H](CSSC[C@H](NC1=O)C(=O)N[C@@H](CCCNC(=N)N)C(=O)NCC(=O)N[C@@H](CC(N)=O)C(=O)NCC(=O)N[C@@H](Cc1ccc(O)cc1)C(=O)N4)NC(=O)[C@H](CCCNC(=N)N)NC(=O)[C@H](CCCNC(=N)N)NC(=O)[C@H](CCCNC(=N)N)NC(=O)[C@H](CCCCN)NC(=O)[C@H](CCCNC(=N)N)NC(=O)[C@H](CCCNC(=N)N)NC3=O)C(=O)N1CCC[C@H]1C(=O)NCC(=O)N[C@@H](C)C(=O)N2 [MCo-polyR-L1] (cyclo(ACICRGNGYCGSGSDGGVCRRKRRRCRRDSDCPG); disulfide 2-19, 4-26, 10-32) | > 100 | > 100 | > 100 | > 100 | – | – | – | –
5 | CC[C@H](C)[C@@H]1NC(=O)[C@@H]2CCCN2C(=O)[C@@H]2CCCN2C(=O)[C@H]([C@@H](C)CC)NC(=O)[C@H](CO)NC(=O)[C@H](CCCCN)NC(=O)[C@H]([C@@H](C)O)NC(=O)[C@@H]2CSSC[C@H](NC1=O)C(=O)N[C@@H](Cc1ccc(O)cc1)C(=O)N[C@H](Cc1c[nH]c3ccccc13)C(=O)N[C@@H](CCCCN)C(=O)N[C@@H](C(C)C)C(=O)N2 [SFTI-SST-01] (cyclo(CTKSIPPICY[dW]KV); disulfide 1-9) | 45.38 ± 0.03 | 18.32 ± 0.05 | 46.07 ± 0.05 | > 100 | – | – | – | –
6 | CC[C@H](C)[C@@H]1NC(=O)[C@@H]2CCCN2C(=O)[C@@H]2CCCN2C(=O)[C@H]([C@@H](C)CC)NC(=O)[C@H](CO)NC(=O)[C@H](CCCCN)NC(=O)[C@H]([C@@H](C)O)NC(=O)[C@@H]2CSSC[C@H](NC1=O)C(=O)N[C@@H](CCCNC(=N)N)C(=O)N[C@@H](CCCNC(=N)N)C(=O)N[C@@H](CCCCN)C(=O)N[C@@H](CCCNC(=N)N)C(=O)N[C@@H](CCCNC(=N)N)C(=O)N[C@@H](CCCNC(=N)N)C(=O)N2 [SFTI-polyR-L2] (cyclo(CRRKRRRCTKSIPPI); disulfide 1-8) | > 100 | > 100 | 41.84 ± 0.07 | > 100 | – | – | – | –
